In ChEMBL document CHEMBL3507680, “University of Dundee, Gates Library screen for HepG2 cell viability”:

Experiment: Human HepG2 cell viability assay in 384 well format
Format: toxicity, cell-based
Set-up: dose 125 nL, time 70.5 hour; cytotoxicity at 70.5 h: concentration not given beside the values
Conditions: HepG2 cells, read-out: Inhibition

Structure (SMILES)	cytotoxicity at 70.5 h [%]
CCN(CC1CCOC1)C(=O)c1cn2ccc(C)cc2n1 (configuration not stated)	-16.3
Cc1ccc(NC2CCN(C(=O)C(C)n3cncn3)CC2)nn1 (configuration not stated)	-0.916
CCn1c(N)nc2cc(C(=O)N3CCC(N4CCCC4)CC3)cnc21	-5.99
Nc1ncncc1-c1noc([C@@H]2CCCN2Cc2cccnc2)n1	-9.55
COCc1cc(NCc2cc(F)ccc2F)n2nccc2n1	-0.226
O=C(CN1CCCC1CCCO)NCc1ccccn1 (configuration not stated)	1.57
Cc1noc([C@H]2COC[C@H]3CN(C(=O)Cc4cccc(F)c4)C[C@H]32)n1	-16.4
Cc1cnc(N2CCOC3(CCCN(C(=O)C(C)C)C3)C2)nc1 (configuration not stated)	-3.83
CC(C)(C)c1nc(CN2CCN(C(=O)c3cnccn3)CC2)cs1	-1.47
CN(C(=O)Nc1cccnc1)C1CCN(c2ccc(Cl)cc2)CC1	0.04
O=C(CSc1ccccn1)N1CCN(CCO)[C@@H]2CS(=O)(=O)C[C@@H]21	2.3
CC(=O)Nc1nc(C(=O)NC(C)c2ccc(C#N)cc2)cs1 (configuration not stated)	-7.27
COCCN1CCCc2sc(C(=O)Nc3ccc(C)nc3)nc21	-0.226
CCc1nc2ccccc2n1C(CC)C(=O)N(C)Cc1nc(C)c[nH]1 (configuration not stated)	21.7
Cc1cccc(C)c1OC1CN(C(=O)C2CCN(C(=O)N(C)C)CC2)C1	29.8
O=C1CSC(c2ccc(O)cc2)c2sccc2N1 (configuration not stated)	3
CN(C)Cc1ccc(C2CCCCN2C(=O)c2ncccc2O)cc1 (configuration not stated)	-3.45
O=C(Cn1cnnn1)NCC1(O)CCCc2ccccc21 (configuration not stated)	-6.92
Cc1nc(C)n(CC2CN(CCCOc3ccccc3C)CCO2)n1 (configuration not stated)	11.3

Structure (SMILES)	cytotoxicity at 70.5 h [%]
CC(C)c1cc(C(=O)N2CCN(c3cccc(C(=O)O)c3)CC2)n(C)n1	-13.2
CCC1C(=O)NCCN1c1nccc(C)n1 (configuration not stated)	45.2
Cc1cc2ncn(C[C@]3(O)CCCN4CCCC[C@@H]43)c2cc1C	-15
CCNC(=O)NC(C)(C)C(=O)NCCc1csc2ccccc12	2.01
COCCn1/c(=N\C(=O)CN(C)S(C)(=O)=O)sc2cccc(F)c21	20.2
Cc1cc(C)c(CNC(=O)NCCCNc2ccccn2)c(=O)[nH]1	6.35
Cc1cccc(C)c1OC1CN(C(=O)C2CCCN(C(=O)N(C)C)C2)C1 (configuration not stated)	-9.46
CC(C)(C)C(O)CN1CCN(CC(=O)NC2CCOCC2)CC1 (configuration not stated)	-7.28
CNC(=O)c1cnc2n1CCN(Cc1cccnc1OC)C2	-4.55
Cc1oc(-c2ccco2)nc1CC(=O)N1CCC(CCO)C1 (configuration not stated)	-11
O=C(CNC(=O)c1c[nH]c2ccccc12)NCCCn1ccnc1	-5.85
CC(C)Oc1nnc(SCC(=O)NCC(=O)N2CCCC2)s1	-10.4
O=C(Nc1ccccc1OC1CCOC1)c1[nH]nc2c1CCCC2 (configuration not stated)	8.78
Cc1nc(CN2CCC(O)(c3ccccc3F)CC2)c2ccccn12	11.2
Cc1nonc1OCCNc1ncnc2sc3c(c12)CCNC3	-3.76
COCCc1noc(CN2CCOC(CN(C)C)C2)n1 (configuration not stated)	-8.08
Cc1cc(C)c(CNC(=O)NCCC2CCCO2)c(=O)[nH]1 (configuration not stated)	-2.77
Cn1cncc1-c1nnc([C@H]2CCN(Cc3cccnc3)C2)o1	-2.71
CN(C)Cc1cc(=O)n2c(n1)CN(Cc1ccco1)CCC2	-4.34

Structure (SMILES)	cytotoxicity at 70.5 h [%]
CC(C)NC(=O)N1CCC2(COCc3cnc(N4CCOCC4)nc32)C1 (configuration not stated)	2.23
CC(C)C(Sc1nncn1C1CC1)C(=O)NCc1cccnc1 (configuration not stated)	-2.46
Cc1nnc(N2CC[C@H]3C[C@@H](C(=O)N4CCCC4)O[C@H]3C2)s1	12.6
FC(F)(F)C1CN(c2nc(-c3ccccc3)no2)CCO1 (configuration not stated)	-14.1
Cc1nnc(CCNC(=O)Nc2ccc(S(C)(=O)=O)cc2)[nH]1	35.6
Cc1cc(N2CCC(c3ncc[nH]3)CC2)cc(C)n1	-3.01
N#Cc1ccc(C(=O)N2CC[C@H]3[C@H]2CCN3CC2CCOCC2)cc1	12.2
CC1CCN(C)c2ccccc2N1C(=O)c1ccnc(-n2cncn2)c1 (configuration not stated)	2.2
CCCn1c(C)c(CC(=O)N(C)CCOC)c2c1CC(C)(C)CC2=O	-7.09
Cc1ccc2[nH]c(CO[C@H]3CN(C(=O)C4CC4)C[C@H]3F)nc2c1	3.41
Cc1c(C2SCC(=O)Nc3c2c(O)nn3C(C)C)cnn1C (configuration not stated)	-26.6
O=C(NCCC1COc2ccccc2O1)c1ccc(-c2cn[nH]c2)nc1 (configuration not stated)	4.75
CN(C)CCN1CCC2(CCN(C(=O)c3ccncc3)CC2)C1=O	-7.69
Cc1cc(N2CCN(C(=O)[C@@H]3C[C@@H]4C=C[C@H]3C4)CC2)cc(C)n1	-15.6
O=C(NCC(O)c1ccccc1Cl)c1cccc(-n2cnnn2)c1 (configuration not stated)	-0.179
CCc1ncc2c(n1)CN(Cc1nc(-c3ccoc3)no1)CC2	-3.42
c1cnc(NC2COC3(CCN(Cc4ccoc4)CC3)C2)nc1 (configuration not stated)	-97.7
Cc1cc(N[C@H](CO)c2ccccc2)n2nc(C)cc2n1	-1.18
COc1ccccc1N1CCN(Cc2cnc3c(c2)c(C)nn3C)CC1	-11.4
